Key:
PBD1 F559R mutant = biological target: T1, PBD1 F559R mutant (Homo sapiens, UniProt P53350, F559R); experiment: FP-based binding/inhibition assay, PBD1 F559R; details: PBD1 F559R, 2 µM protein
T1 construct: constructs expressing PBD1 (residues 345–603) WT (pKM7650); His; TEV site (N); made in house; host or cells: bacteria (E. coli)
Protocol: (§1) FP assays were carried out essentially as described previously ([35], [36]). FITC-conjugated ligands (15 nM) were mixed with PBDs at their EC85 concentrations. All the samples were analyzed approximately 30 min after reaction in a 384-well format using the SpectraMax Paradigm multimode microplate detection platform (Molecular Devices). Data were analyzed after carrying out at least three independent experiments using GraphPad Prism software version 8.
(§2) Fig. S4. Generation of F559 mutants for in vitro and cell-based assays in Fig. 4. (A) SDS-PAGE showing the proteins used for the FP assays in Fig. 4 A and B. CBB, a Coomassie Brilliant Blue– stained gel. (B) Summary of Kd and EC85 values for PBD1 WT and mutants. The Kd values for PBD1 WT and mutants were determined after extrapolating them from the binding curves as the concentration at which 50% of the FITC-Ahx-DPPLHSpTAI-NH2 are PBD1-bound. The EC85 values indicate the effective concentration of 85% of the maximal concentration calculated for each protein. The FP values were obtained 30 minutes after incubation. For the F559K and F559R mutants, we were not able to determine the EC85 values and therefore used 2 µM of these proteins for the assays in Fig. 4B. N.D., not determined. […]

full-length Plk1 = biological target: T2, full-length Plk1 (Homo sapiens, UniProt P53350); experiment: ELISA-based PBD1-binding inhibition assay; details: total lysates from HEK293A cells expressing full-length Plk1; biotinylated PBIP1 p-T78 peptide; read-out: Anti-Plk1 (full length) ELISA (IC50) Mean ± SEM
T2 construct: expressed in transfected cells; host or cells: HEK293A cells infected with adenovirus; total lysate

PBD1 F559D mutant = biological target: T3, PBD1 F559D mutant (Homo sapiens, UniProt P53350, F559D); experiment: FP-based binding/inhibition assay, PBD1 F559D; details: PBD1 F559D at EC85
T3 construct: constructs expressing PBD1 (residues 345–603) WT (pKM7650), F559D (pKM7878); His; TEV site (N); made in house; host or cells: bacteria (E. coli)
Protocol: as §1, §2

[1] = system: Flag-Plk1 F559D interactions with p-PBIP1, p-Bub1, p-BubR1, p-Cdc25C; experiment: Coimmunoprecipitation, HeLa cells expressing Flag-Plk1 F559D; type: cell-based; details: 20 μM for 2 h, nocodazole + okadaic acid
Protocol: (§3) For coimmunoprecipitation analyses shown in Figs. 1C and 4F, HeLa cells stably expressing PCMV-Flag-Plk1 WT (pKM3863) (Fig. 1C) and its respective F559D mutant (pKM7979) (Fig. 4F) were generated using a lentiviral expression system. Prior to harvest, the cells were treated with 600 nM of nocodazole and 300 nM of okadaic acid (OA) for 16 h and 1.5 h, respectively, to enrich the level of phosphorylated proteins and additionally treated with either control DMSO or 20 μM of Allopole for 2 h. Immunoprecipitation was carried out essentially as described previously ([49]) in TBSN buffer [20 mM Tris–Cl (pH 8.0), 150 mM NaCl, 0.5% NP-40, 5 mM EGTA, 2 mM MgCl2, 1.5 mM EDTA, 2 mM DTT, 20 mM p-nitrophenyl phosphate (PNPP), and protease inhibitor cocktail (Roche)] using anti-Flag antibody (Sigma-Aldrich). Immunoprecipitates were separated by sodium dodecyl sulfate–polyacrylamide gel electrophoresis (SDS-PAGE) and then immunoblotted according to standard procedures using an enhanced chemiluminescence detection system (Thermo Fisher Scientific). The antibodies that were used to detect specific indicated proteins in Fig. 1C are listed in SI Appendix, Table S6.

[2] = system: mGFP-Plk1 F559D at centrosomes, U2OS cells; experiment: Confocal quantification of Pendo-mGFP-Plk1 F559D in U2OS cells (siPlk1); type: cell-based; details: U2OS siPlk1, 8 μM, 2 or 16 h
Protocol: To corroborate the importance of the F559 residue for Allopole-A binding, U2OS cells expressing endogenous promoter (i.e., Pendo)-controlled mGFP-Plk1 WT or F559D mutant were depleted of endogenous Plk1 by RNAi for 48 h (SI Appendix, Fig. S4C), treated with control DMSO or 8 μM of Allopole for 2 or 16 h, and fixed (SI Appendix, Fig. S4D). Afterward, the level of mGFP fluorescence was quantified using confocal microscopy (Fig. 4 C and D). As expected from the results shown in Fig. 1 C and D, Allopole delocalized mGFP-Plk1 WT from centrosomes within 2 h after treatment, and this effect was sustained for up to 16 h. […] This could be attributable to the fact that unlike PBIP1, which binds to PBD1 through the self-priming and binding mechanism ([49]), Bub1, BubR1, and likely Cdc25C require Cdc2-dependent priming phosphorylation to interact with PBD1 ([42]–[44]). […]
Confocal images of unsaturated fluorescence signals were acquired under the same laser intensity at the 12-bit resolution. Fluorescence intensities for identifiable centrosome and kinetochore signals were quantified after the maximum-intensity projection of z-stacks using the Zeiss ZEN v2.1 software (Carl Zeiss Microscopy, LLC). Data were quantified from three independent experiments.

[3] = system: Flag-Plk1 interactions with p-PBIP1, Bub1, BubR1, Cdc25C; experiment: Coimmunoprecipitation, HeLa cells expressing Flag-Plk1; type: cell-based; details: 20 μM for 2 h, nocodazole + okadaic acid
Protocol: as §3

T3 sequence (P53350 345-603 F559D): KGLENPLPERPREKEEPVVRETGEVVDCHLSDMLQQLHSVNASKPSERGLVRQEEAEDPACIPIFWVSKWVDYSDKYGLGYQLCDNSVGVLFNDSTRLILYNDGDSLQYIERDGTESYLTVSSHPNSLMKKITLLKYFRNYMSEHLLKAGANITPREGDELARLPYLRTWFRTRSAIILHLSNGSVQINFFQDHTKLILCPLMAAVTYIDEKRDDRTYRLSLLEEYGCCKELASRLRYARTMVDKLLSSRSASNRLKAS
T2 sequence (P53350 whole entry): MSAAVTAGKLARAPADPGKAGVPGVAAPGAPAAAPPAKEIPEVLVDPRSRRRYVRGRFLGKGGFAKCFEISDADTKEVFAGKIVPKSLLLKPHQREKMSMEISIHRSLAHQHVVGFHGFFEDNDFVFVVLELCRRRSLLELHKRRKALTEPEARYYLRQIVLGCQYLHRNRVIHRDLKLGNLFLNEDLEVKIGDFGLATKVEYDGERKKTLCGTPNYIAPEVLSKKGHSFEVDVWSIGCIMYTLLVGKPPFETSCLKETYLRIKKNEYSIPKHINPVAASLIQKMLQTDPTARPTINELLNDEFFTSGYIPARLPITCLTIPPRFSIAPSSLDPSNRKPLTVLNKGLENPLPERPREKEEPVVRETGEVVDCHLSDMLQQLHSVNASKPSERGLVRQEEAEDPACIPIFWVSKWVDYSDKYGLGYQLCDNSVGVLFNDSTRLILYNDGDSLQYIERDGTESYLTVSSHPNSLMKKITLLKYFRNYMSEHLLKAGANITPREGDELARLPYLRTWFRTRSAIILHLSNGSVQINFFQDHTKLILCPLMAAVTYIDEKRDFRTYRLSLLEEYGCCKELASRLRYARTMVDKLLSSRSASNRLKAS
T1 sequence (P53350 345-603 F559R): as the sequence (P53350 345-603 F559D) above, with D215R counted along it

Row | SMILES | Inhibition of FITC-phosphopeptide binding (in words) (PBD1 F559R mutant) | IC50 (full-length Plk1) | Inhibition of FITC-phosphopeptide binding (in words) (PBD1 F559D mutant) | Phosphoproteins coprecipitating with Flag-Plk1 F559D (in words) [1] | Level of centrosome-localized mGFP-Plk1 F559D (in words) [2] | Phosphoproteins coprecipitating with Flag-Plk1 (in words) [3]
1 | O=c1c2sc(Cl)cc2n2c(=S)[nH]nc2n1CC1CC1 [Allopole-A] | failed to inhibit | 1400 nM | failed to inhibit | – | – | –
2 | Cn1cnc([N+](=O)[O-])c1Sc1nnc2n(CC3CC3)c(=O)c3sc(Cl)cc3n12 [Allopole] | – | – | – | coimmunoprecipitated p-PBIP1, p-Bub1, p-BubR1, and p-Cdc25C effectively | failed to alter the level | greatly diminished the amounts of these proteins coprecipitating with Plk1

Reference: article PMC10629583, “Specific inhibition of an anticancer target, polo-like kinase 1, by allosterically dismantling its mechanism of substrate recognition” (Proceedings of the National Academy of Sciences of the …, 2023)
